Measured values: ChEMBL document CHEMBL1152929, “Dapholdhamines A-D, alkaloids from Daphniphyllum oldhami” (J Nat Prod, 2009)
The source made the active and inactive calls.

How the values were obtained:
Assay type in all cases: functional, cell-based
SW480 = assay: Cytotoxicity against human SW480 cells
K562 = assay: Cytotoxicity against human K562 cells
HCT-116 = assay: Cytotoxicity against human HCT116 cells
KB = assay: Cytotoxicity against human KB cells
HT-29 = assay: Cytotoxicity against human HT-29 cells
HL-60 = assay: Cytotoxicity against human HL60 cells

Measured: Activity

COC(=O)c1c2ccoc3c-2c2c1C(=O)[C@]1(O)C[C@@]4(O)N(C[C@@H](CC3)[C@@]24C)C[C@H]1C
inactive: all assays above

C[C@@H]1CN2C3[C@@H]4CC[C@@]35CCC[C@H]5[C@@]3(CCC(=O)O)[C@H]2[C@]1(O)CC[C@@]43C
inactive: all assays above

CC(C)[C@H]1CC[C@@]2(C)[C@H]3C[C@@H]4[C@H]5CCC[C@@]4(O)[C@@]2(CCC(=O)O)[C@@H]1N5C3
inactive: all assays above

COC(=O)c1c2ccoc3c-2c2c1C(=O)[C@]1(O)CC4(CC(C)=O)N(C[C@@H](CC3)[C@@]24C)C[C@H]1C
inactive: all assays above
